pIC50: −log10 of the molar value.
The compounds below were run against human NLRP3 (Homo sapiens (Human), UniProt Q96P20) (assay: Scintillation Proximity (SPA) NLRP3 Assay: displacement of 3H-MCC950). Details: displacement of 3H-MCC950; read-out: SPA IC50.
human NLRP3, sequence (Q96P20 whole entry): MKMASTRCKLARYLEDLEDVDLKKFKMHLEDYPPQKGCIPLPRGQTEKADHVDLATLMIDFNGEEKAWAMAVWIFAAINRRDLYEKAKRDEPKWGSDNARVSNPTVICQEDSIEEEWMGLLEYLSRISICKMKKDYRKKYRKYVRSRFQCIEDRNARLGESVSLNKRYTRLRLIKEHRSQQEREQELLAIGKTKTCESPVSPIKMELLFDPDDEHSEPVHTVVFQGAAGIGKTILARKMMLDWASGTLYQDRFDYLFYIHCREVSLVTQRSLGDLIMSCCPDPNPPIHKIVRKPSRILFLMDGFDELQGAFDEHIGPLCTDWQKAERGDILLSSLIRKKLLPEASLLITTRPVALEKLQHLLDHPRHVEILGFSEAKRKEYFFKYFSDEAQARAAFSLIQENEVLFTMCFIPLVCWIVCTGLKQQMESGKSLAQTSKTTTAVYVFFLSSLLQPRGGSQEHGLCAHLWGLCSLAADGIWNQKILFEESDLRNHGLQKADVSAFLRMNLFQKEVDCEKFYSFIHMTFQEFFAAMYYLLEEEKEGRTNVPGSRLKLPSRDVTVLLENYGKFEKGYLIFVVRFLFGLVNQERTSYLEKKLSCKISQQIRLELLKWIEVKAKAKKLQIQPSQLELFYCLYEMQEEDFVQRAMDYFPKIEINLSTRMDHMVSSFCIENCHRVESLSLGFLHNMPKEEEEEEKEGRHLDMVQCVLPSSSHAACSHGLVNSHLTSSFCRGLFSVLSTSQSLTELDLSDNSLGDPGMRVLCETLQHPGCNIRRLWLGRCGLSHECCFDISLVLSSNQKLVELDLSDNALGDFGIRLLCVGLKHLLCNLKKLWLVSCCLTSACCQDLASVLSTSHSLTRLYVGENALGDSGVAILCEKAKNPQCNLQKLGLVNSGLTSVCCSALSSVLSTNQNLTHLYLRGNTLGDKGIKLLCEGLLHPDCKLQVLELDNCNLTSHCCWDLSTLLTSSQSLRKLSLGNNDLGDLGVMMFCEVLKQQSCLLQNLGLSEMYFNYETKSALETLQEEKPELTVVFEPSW
Type: binding
In the case of `O=C(N[C@@H]1C[C@H](C(F)(F)F)[C@H]2CC[C@@H]1N2c1nnn[nH]1)C1(c2ccc(Cl)cc2)CC1` (single isomer, unassigned) [103C*], the pIC50 was < 4.00.
In the case of `C[C@H]1CCN(c2nnn[nH]2)C[C@H](NC(=O)C2(c3ccc(C(F)F)cc3)CC2)C1` (single isomer, unassigned) [5C*, 1-(4-(difluoromethyl)phenyl)-N-(5-methyl-1-(1H-tetrazol-5-yl)azepan-3-yl)cyclopropane-1-carboxamide], the pIC50 was < 4.00.
`C[C@H]1CCN(c2nnn[nH]2)C[C@H](NC(=O)C2(c3cnc(Cl)cc3O)CC2)C1` (single isomer, unassigned) [99C*] showed a pIC50 of 4.00 to 4.30.
In the case of `C[C@H]1CCN(c2nnn[nH]2)C[C@@H](NC(=O)C2(c3ccc(Cl)cc3)CC2)C1` (single isomer, unassigned) [12D*, 1-(4-chlorophenyl)-N-(5-methyl-1-(1H-tetrazol-5-yl)azepan-3-yl)cyclopropane-1-carboxamide], the pIC50 was 4.30 to 5.00.
In the case of `C[C@H]1C[C@@H](NC(=O)C2(c3ccc(OC(F)F)cc3)CC2)[C@@H]2CC[C@H]1N2c1nnn[nH]1` (single isomer, unassigned) [35C*], the pIC50 was < 4.00.
`C[C@@H]1C[C@H](NC(=O)C2(c3ccc(C(F)(F)F)cc3F)CC2)[C@H]2CC[C@@H]1N2c1nnn[nH]1` [84B*, 1-(2-fluoro-4-(trifluoromethyl)phenyl)-N-((1R,2S,4R,5S)-4-methyl-8-(1H-tetrazol-5-yl)-8-azabicyclo[3.2.1]octan-2-yl)cyclopropane-1-carboxamide] showed a pIC50 of 4.30 to 5.00.
For `C[C@H]1CCN(c2nnn[nH]2)C[C@@H](NC(=O)C2(c3ccc(C4CC4)cc3)CC2)C1` (single isomer, unassigned) [2D*], the pIC50 was 5.00 to 6.00.
For `C[C@H]1CCN(c2nnn[nH]2)C[C@H](NC(=O)C2(c3ccc(C4CC4)c(F)c3O)CC2)C1` (single isomer, unassigned) [32C*, 1-(4-cyclopropyl-3-fluoro-2-hydroxyphenyl)-N-(5-methyl-1-(1H-tetrazol-5-yl)azepan-3-yl)cyclopropane-1-carboxamide], the pIC50 was 4.00 to 4.30.
With `O=C(N[C@H]1CCCCCN(c2nnn[nH]2)C1)C1(c2ccc(Cl)cc2)CC1` (single isomer, unassigned) [14B*, N-(1-(1H-tetrazol-5-yl)azocan-3-yl)-1-(4-chlorophenyl)cyclopropane-1-carboxamide] the pIC50 was 4.30 to 5.00.
With `C[C@@H]1CC[C@H](NC(=O)C2(c3ccc(Cl)cc3O)CC2)CN(c2nnn[nH]2)C1` (single isomer, unassigned) [90D*] the pIC50 was 5.00 to 6.00.
For `C[C@H]1CCN(c2nnn[nH]2)C[C@@H](NC(=O)C2(c3ccc(C(F)(F)F)c(OC(F)F)c3)CC2)C1` (single isomer, unassigned) [54D*], the pIC50 was 4.30 to 5.00.
`O=C(N[C@H]1CC[C@@H]2CC[C@H]1N2c1nnn[nH]1)C1(c2ccc(Cl)c(F)c2O)CC1` [76B*, N-((1R,2S,5R)-8-(1H-tetrazol-5-yl)-8-azabicyclo[3.2.1]octan-2-yl)-1-(4-chloro-3-fluoro-2-hydroxyphenyl)cyclopropane-1-carboxamide] showed a pIC50 of 4.30 to 5.00.
`C[C@@]1(NC(=O)C2(c3ccc(Cl)cc3)CC2)CCCN(c2nnn[nH]2)C1` (single isomer, unassigned) [11A*, 1-(4-chlorophenyl)-N-(3-methyl-1-(1H-tetrazol-5-yl)piperidin-3-yl)cyclopropane-1-carboxamide] was tested, and the pIC50 was < 4.00.
With `Cc1ccc(C2(C(=O)N[C@H]3C[C@@H](C)CCN(c4nnn[nH]4)C3)CC2)cc1` (single isomer, unassigned) [71D*] the pIC50 was 4.30 to 5.00.
`C[C@H]1CCN(c2nnn[nH]2)C[C@H](NC(=O)C2(c3ccc(C(F)(F)F)cc3O)CC2)C1` (single isomer, unassigned) [63C*] gave a pIC50 of 4.30 to 5.00.
For `C[C@H]1C[C@H](NC(=O)C2(c3ccc(SC(F)F)cc3)CC2)[C@@H]2CC[C@H]1N2c1nnn[nH]1` [85D*, 1-(4-((difluoromethyl)thio)phenyl)-N-((1S,2S,4S,5R)-4-methy1-8-(1H-tetrazol-5-yl)-8-azabicyclo[3.2.1]octan-2-yl)cyclopropane-1-carboxamide], the pIC50 was < 4.00.
`C[C@@H]1CCN(c2nnn[nH]2)C[C@@H](NC(=O)C2(c3ccc(Cl)cc3F)CC2)C1` (single isomer, unassigned) [56B*] gave a pIC50 of 5.00 to 6.00.
`Cc1ccc(C2(C(=O)N[C@H]3C[C@@H](C)CCN(c4nnn[nH]4)C3)CC2)c(O)c1` (single isomer, unassigned) [67D*] gave a pIC50 of 5.00 to 6.00.
Work on `C[C@H]1CCN(c2nnn[nH]2)C[C@@H](NC(=O)C2(c3ccc(OC(F)F)c(F)c3)CC2)C1` (single isomer, unassigned) [73D*] yielded a pIC50 of 5.00 to 6.00.
For `O=C(N[C@@H]1CN(c2nnn[nH]2)CCC(F)(F)C1)C1(c2ccc(Cl)cc2)CC1` (single isomer, unassigned) [53B*], the pIC50 was 4.00 to 4.30.
`C[C@@H]1C[C@H](NC(=O)C2(c3ccc(OC(F)(F)F)cc3)CC2)[C@H]2CC[C@@H]1N2c1nnn[nH]1` [82B*, N-((1R,2S,4R,5S)-4-methyl-8-(1H-tetrazol-5-yl)-8-azabicyclo[3.2.1]octan-2-yl)-1-(4-(trifluoromethoxy)phenyl)cyclopropane-1-carboxamide] was tested, and the pIC50 was < 4.00.
`C[C@H]1C[C@H](NC(=O)C2(c3ccc(OC(F)F)cc3)CC2)[C@H]2CC[C@@H]1N2c1nnn[nH]1` (single isomer, unassigned) [35F*] gave a pIC50 of 4.00 to 4.30.
Work on `C[C@H]1CCN(c2nnn[nH]2)C[C@@H](NC(=O)C2(c3ccc(OC(F)(F)F)cc3F)CC2)C1` (single isomer, unassigned) [64D*] yielded a pIC50 of 5.00 to 6.00.
For `C[C@H]1CCN(c2nnn[nH]2)C[C@H](NC(=O)C2(c3c(F)cc(Cl)cc3F)CC2)C1` (single isomer, unassigned) [72C*], the pIC50 was < 4.00.
`C[C@H]1CCN(c2nnn[nH]2)C[C@@H](NC(=O)C2(c3ccc(OC(F)(F)F)cc3)CC2)C1` (single isomer, unassigned) [57D*] gave a pIC50 of 4.30 to 5.00.
Compound `C[C@H]1CCN(c2nnn[nH]2)C[C@@H](NC(=O)C2(c3c(F)cc(Cl)cc3F)CC2)C1` (single isomer, unassigned) [72D*] has a pIC50 of 4.30 to 5.00.
In the case of `C[C@H]1CCN(c2nnn[nH]2)C[C@@H](NC(=O)C2(c3ccc(C(F)(F)F)cc3O)CC2)C1` (single isomer, unassigned) [63D*], the pIC50 was > 6.00.
For `C[C@H]1C[C@H](NC(=O)C2(c3ccc(OC(F)(F)F)cc3)CC2)[C@@H]2CC[C@H]1N2c1nnn[nH]1` [82D*, N-((1S,2S,4S,5R)-4-methy1-8-(1H-tetrazol-5-yl)-8-azabicyclo[3.2.1]octan-2-yl)-1-(4-(trifluoromethoxy)phenyl)cyclopropane-1-carboxamide], the pIC50 was < 4.00.
For `C[C@@H]1CCN(c2nnn[nH]2)C[C@@H](NC(=O)C2(c3ccc(C4CC4)cc3)CC2)C1` (single isomer, unassigned) [2B*], the pIC50 was 5.00 to 6.00.
Work on `Cc1cc(C2(C(=O)N[C@@H]3C[C@H](C)CCN(c4nnn[nH]4)C3)CC2)ccc1C(F)(F)F` (single isomer, unassigned) [6A*, N-(5-methyl-1-(1H-tetrazol-5-yl)azepan-3-yl)-1-(3-methyl-4-(trifluoromethyl)phenyl)cyclopropane-1-carboxamide] yielded a pIC50 of 5.00 to 6.00.
Compound `C[C@H]1C[C@H](NC(=O)C2(c3ccc(OC(F)F)cc3F)CC2)[C@@H]2CC[C@H]1N2c1nnn[nH]1` (stereo in doubt) [101D*, 1-(4-(difluoromethoxy)-2-fluorophenyl)-N-(4-methyl-8-(1H-tetrazol-5-yl)-8-azabicyclo[3.2.1]octan-2-yl)cyclopropane-1-carboxamide] has a pIC50 of 4.30 to 5.00.

— US20260007684A1, “AMIDE DERIVATIVES FOR INHIBITING NLRP3 AND USES THEREOF” (Ventus Therapeutics U.S., Inc., priority 2023, published 2026)
